Test results published in patent US11466044B2 (WAYNE STATE UNIVERSITY, priority 2017, dated 2022).
pIC50: −log10 of the molar value. Values after ≈ are worked out from the molar mass of the structure shown. Where two headings read alike, the source gives them in different places.

What was measured:
[1] = system: E coli wild type; assay: MIC by broth microdilution, wild type E coli; format: cell-based; conditions: Escherichia coli; for MIC50: Table 1 (Example 1)
[2] = system: Enterobacter cloacae AG290; assay: MIC by broth microdilution, Enterobacter cloacae; format: cell-based; conditions: strain AG290 Enterobacter cloacae; read-out: MIC AG290 E. cloacae
[3] = system: Klebsiella pneumonia AG215; assay: MIC by broth microdilution, Klebsiella pneumonia; format: cell-based; conditions: Klebsiella pneumoniae; strain AG215 Klebsiella pneumonia; read-out: MIC AG215 K. pneumon
[4] = system: mitochondrial ribosome (human chimeric); format: biochemical; conditions: mitochondrial; Table 3 (Example 1); read-out: IC50 Mit
Source text: (§1) The antiribosomal activity of these compounds was investigated with cell-free translation assays using both wild type bacterial ribosomes and hybrid ribosomes carrying eukaryotic decoding A sites enabling the prediction of selectivity.

[5] = system: cytosolic ribosome (human chimeric); format: biochemical; conditions: cytosolic; Table 3 (Example 1); read-out: IC50 Cyt
Source text: as §1

[6] = system: M. smegmatis SZ380; assay: MIC by broth microdilution, M. smegmatis; conditions: Mycolicibacterium smegmatis, SZ380, read-out: MIC SZ380 M. smegmatis, strain SZ380 Mycobacterium smegmatis
[7] = system: E coli carrying specific resistance determinants; assay: MIC by broth microdilution, E coli carrying specific resistance determinants; format: cell-based; conditions: Escherichia coli
[8] = system: wild type bacterial ribosomes; assay: in-vitro translation assay, bacterial ribosomes; format: biochemical; conditions: bacterial ribosome; Table 3 (Example 1); read-out: IC50 Bac
Source text: as §1

[9] = system: N. gonorrhoeae; assay: Disk diffusion, N. gonorrhoeae; format: cell-based; conditions: Neisseria gonorrhoeae
[10] = system: MRSA; assay: MIC by broth microdilution, MRSA isolates; format: cell-based; conditions: Staphylococcus aureus, MRSA, Table 1 (Example 1)
[11] = system: P aeruginosa; assay: MIC by broth microdilution, P aeruginosa isolates; format: cell-based, Pseudomonas aeruginosa; conditions: for MIC50: Pseudomonas aeruginosa, Table 1 (Example 1)
[12] = system: Acinetobacter baumannii pittii AG225; assay: MIC by broth microdilution, Acinetobacter baumannii; format: cell-based; conditions: strain AG225 Acinetobacter baumannii pittii

`NCC1OC(OC2C(CNC=O)OC(OC3C(O)C(N)CC(N)C3OC3OC(CO)C(O)CC3N)C2O)C(N)C(O)C1O` (stereo not shown) [Compound 153, 3′,5″-Dideoxy-5″-formamido-paromomycin] was tested, and the MIC ([1]; AG006 wt, Table 2 (Example 1), read-out: MIC E coli AG006 wt) was 2 mg/L (≈ 3.19 µM), the MIC ([1]; AG102 wt, Table 2 (Example 1), read-out: MIC E coli AG102 wt) was 2 mg/L (≈ 3.19 µM) and the MIC ([1]; AG160 wt, Table 2 (Example 1), read-out: MIC E coli AG160 wt) was 2 to 4 mg/L (≈ 3.19 to 6.38 µM). The MIC ([1]; ATCC25922, strain AG212 E. coli (ATCC25922), read-out: MIC AG212 E. coli) was 4 mg/L (≈ 6.38 µM), the MIC ([1]; WT, Table 3 (Example 1), read-out: MIC WT) was 2 mg/L (≈ 3.19 µM) and the MIC ([1]; clinical isolate AG160 WT, Table 2 (Example 4), read-out: MIC AG160 E. coli WT) was 2 to 4 mg/L (≈ 3.19 to 6.38 µM). The MIC ([1]; engineered strain pH430 WT, Table 2 (Example 4), read-out: MIC pH430 E. coli WT) was 2 mg/L (≈ 3.19 µM), the MIC50 ([1]; strain AG01, read-out: MIC50 E coli AG01) was 8 to 16 mg/L (≈ 12.8 to 25.5 µM) and the MIC50 ([1]; strain AG03, read-out: MIC50 E coli AG03) was 8 mg/L (≈ 12.8 µM). The MIC50 ([1]; strain AG55, read-out: MIC50 E coli AG55) was 8 to 16 mg/L (≈ 12.8 to 25.5 µM), the MIC [2] was 2 mg/L (≈ 3.19 µM) and the MIC [3] was 1 to 2 mg/L (≈ 1.6 to 3.19 µM). It also gave a pIC50 [4] of 3.84, a pIC50 [5] of 4.05 and an MIC [6] of 1 mg/L (≈ 1.6 µM). It also gave an MIC ([7]; read-out: MIC AG037 E. coli APH(3′)-III) of 2 mg/L (≈ 3.19 µM), an MIC ([7]; read-out: MIC AG163 E. coli APH(3′)-I) of 4 to 8 mg/L (≈ 6.38 to 12.8 µM) and an MIC ([7]; read-out: MIC AG166 E. coli APH(3′)-II) of 8 to 16 mg/L (≈ 12.8 to 25.5 µM). It also gave an MIC ([7]; read-out: MIC APH(3)-VI) of 2 to 4 mg/L (≈ 3.19 to 6.38 µM), an MIC ([7]; read-out: MIC APH(3′)-I) of 2 mg/L (≈ 3.19 µM) and an MIC ([7]; read-out: MIC APH(3′)-II) of 2 mg/L (≈ 3.19 µM). It also gave an MIC ([7]; read-out: MIC APH(3′)-III) of 2 mg/L (≈ 3.19 µM), an MIC ([7]; read-out: MIC E coli AG007 ANT(3″) AAC(3)-I) of 4 mg/L (≈ 6.38 µM) and an MIC ([7]; read-out: MIC E coli AG103 ArmA) of 32 mg/L (≈ 51.1 µM). The MIC ([7]; read-out: MIC E coli AG163/164 APH(3′)-Ia) was 4 to 8 mg/L (≈ 6.38 to 12.8 µM), the MIC ([7]; read-out: MIC E coli AG166 APH(3′)-IIa) was 8 to 16 mg/L (≈ 12.8 to 25.5 µM) and the MIC ([7]; read-out: MIC pH421 E. coli APH(3′)-I) was 2 mg/L (≈ 3.19 µM). For the same molecule, the MIC ([7]; read-out: MIC pH422 E. coli APH(3′)-II) was 4 mg/L (≈ 6.38 µM), the MIC ([7]; read-out: MIC pH423 E. coli APH(3′)-VI) was 2 to 4 mg/L (≈ 3.19 to 6.38 µM) and the pIC50 [8] was 6.92. It also gave a zone of inhibition at 25 nmol/disc [9] of 13 mm, an MIC50 ([10]; strain AG38, read-out: MIC50 MRSA AG38) of 4 mg/L (≈ 6.38 µM) and an MIC50 ([10]; strain AG39, read-out: MIC50 MRSA AG39) of over 128 mg/L. For the same molecule, the MIC50 ([10]; strain AG42, read-out: MIC50 MRSA AG42) was over 128 mg/L, the MIC50 ([10]; strain AG44, read-out: MIC50 MRSA AG44) was 4 mg/L (≈ 6.38 µM) and the MIC50 ([11]; strain AG31, read-out: MIC50 P aeruginosa AG31) was 32 to 64 mg/L (≈ 51.1 to 102 µM). The MIC50 ([11]; strain AG32, read-out: MIC50 P aeruginosa AG32) was 32 mg/L (≈ 51.1 µM), the MIC50 ([11]; strain AG33, read-out: MIC50 P aeruginosa AG33) was over 32 mg/L and the MIC ([11]; strain AG220 Pseudomonas aeruginosa ATCC27853, read-out: MIC AG220 P. aerugin) was 8 mg/L (≈ 12.8 µM). The MIC [12] was 4 mg/L (≈ 6.38 µM).
